Our source for the Kd, IC50 and Ka values is paper PMC10333884, “Large‐scale phosphomimetic screening identifies phospho‐modulated motif‐based protein interactions” (Molecular Systems Biology, 2023).

Format in all cases: binding
One test concerns the target T1, KPNA4 ARM Major (Homo sapiens, UniProt O00629).
T1 construct: 60-487; GST (cleaved yes); made in house; host or cells: Escherichia coli BL21-Gold(DE3)
The experiment in a line: FP displacement assay, KPNA4 ARM major pocket. As to conditions: for Kd: major pocket probe FITC-MYC 5 nM, 50 mM sodium phosphate pH 7.4, room temperature, at least three technical replicates, read-out: KD values ± SEM; for IC50: Fig 3E, KPNA4 ARM major, technical triplicates, read-out: IC50 values of displacement curves, with SEM. The protocol: (§1) FP experiments were performed as described previously (Kliche et al, [2021]). Shortly, in order to monitor the binding event, FITC‐labelled peptides were used (excitation 495 nm, emission: 535 nm) and the FP signal was recorded in mP on a SpectraMax iD5 Multi‐Mode Microplate Reader (Molecular Devices) by measuring the emitted light in two angels. The measurements were performed at room temperature and prepared in nonbinding black half area 96‐well microplates (Corning®; 50 μl/well). For measuring direct binding, that is saturation curves, a 1:1 dilution series of protein domain (25 μl/well) was generated in 50 mM sodium phosphate buffer pH 7.4 and the measurement performed with 5 nM FITC‐labelled peptide (25 μl/well). The buffer‐corrected values were subsequently plotted with PRISM and fitted to the quadratic equation (Gianni et al, [2005]).
(§2) The 1:1 dilution series in this experiment was performed with the unlabelled peptide in 50 mM sodium phosphate buffer pH 7.4, so that each well‐contained unlabelled peptide (25 μl) at a certain concentration and pre‐formed complex (25 μl). The KD values of this indirectly monitored binding event were calculated as described previously (Nikolovska‐Coleska et al, [2004]). All measurements were at least in technical triplicates as well as biological duplicates when indicated. An amplitude shift between repeat measurements in the displacement experiments was occasionally observed due to variations in the protein preparations. If that was the case, the “active” protein concentration was back‐calculated according to the quadratic equation from the saturation curves performed in parallel. By comparing the active protein concentrations in the complex between different protein preparations, the amplitude was normalised.

A further test concerns the target T2, KPNA4 ARM minor (Homo sapiens, UniProt O00629).
T2 construct: 60-487; GST (cleaved yes); made in house; host or cells: Escherichia coli BL21-Gold(DE3)
Kind of test: FP displacement assay, KPNA4 ARM minor pocket. Particulars: for Kd: minor pocket probe FITC-NCOR2 5 nM, 50 mM sodium phosphate pH 7.4, room temperature, at least three technical replicates, read-out: KD values ± SEM; for IC50: Fig 3E, KPNA4 ARM minor, technical triplicates, read-out: IC50 values of displacement curves, with SEM. The protocol: as §1, §2

The target of the next test is T3, GABARAPL2 (Homo sapiens, UniProt P60520).
T3 construct: GABARAPL2_ATG8__P60520_2_115; GST (cleaved yes); made in house; host or cells: Escherichia coli BL21-Gold(DE3)
T3 sequence (P60520 2-115): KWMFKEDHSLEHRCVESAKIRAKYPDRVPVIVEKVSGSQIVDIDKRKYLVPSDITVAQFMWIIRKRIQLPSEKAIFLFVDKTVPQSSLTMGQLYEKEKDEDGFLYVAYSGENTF
The experiment in a line: FP displacement assay, GABARAPL2. The protocol:
as §1, §2

A further test deals with T4, MAP1LC3B (Homo sapiens, UniProt Q9GZQ8).
T4 construct: GST (cleaved yes); made in house; host or cells: Escherichia coli BL21-Gold(DE3)
The experiment in a line: FP displacement assay, MAP1LC3B. As to conditions: read-out: KD values ± SEM. The procedure:
as §1, §2

Another test has as its target T5, MAP1LC3B ATG8 (Homo sapiens, UniProt Q9GZQ8).
T5 construct: MAP1LC3B ATG8; made in house; host or cells: Escherichia coli BL21-Gold(DE3)
Kind of test: ITC, MAP1LC3B ATG8. Particulars: for Kd: ITC (iTC200), 50 mM sodium phosphate pH 7.4, 1 mM DTT, average of the runs, at least technical triplicates.

Where [1] appears, read: ITC single run: date 200402, injection 1.
Where [2] appears, read: ITC single run: date 200402, injection 2.
The mark [3] stands for this setting: ITC single run: date 200402, injection 3.

Each structure is given as a SMILES string. Like-named read-outs stand apart in the source and are kept apart here. Non-standard residues stand in square brackets, D forms with d. Residues, ends and D or L forms follow the SMILES beside them. pT = C[C@@H](OP(=O)(O)O)[C@H](N)C(=O)O; pS = N[C@@H](COP(=O)(O)O)C(=O)O

T1 sequence (O00629 60-487): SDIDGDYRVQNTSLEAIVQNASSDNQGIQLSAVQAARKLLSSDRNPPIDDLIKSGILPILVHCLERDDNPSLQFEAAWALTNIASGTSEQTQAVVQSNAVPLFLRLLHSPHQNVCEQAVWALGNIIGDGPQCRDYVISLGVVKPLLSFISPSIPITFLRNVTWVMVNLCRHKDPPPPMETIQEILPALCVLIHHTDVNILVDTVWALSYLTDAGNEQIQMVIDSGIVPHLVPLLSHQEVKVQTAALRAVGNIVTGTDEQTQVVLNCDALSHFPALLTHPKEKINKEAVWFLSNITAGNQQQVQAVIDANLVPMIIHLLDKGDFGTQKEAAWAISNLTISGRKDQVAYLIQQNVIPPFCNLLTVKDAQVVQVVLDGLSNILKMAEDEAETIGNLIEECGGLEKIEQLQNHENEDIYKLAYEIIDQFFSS
T2 sequence (O00629 60-487): as above

With `CC(=O)NCC(=O)N[C@@H](C)C(=O)N[C@@H](CO)C(=O)N1CCC[C@H]1C(=O)N[C@@H](C)C(=O)N[C@@H](CC(C)C)C(=O)N[C@@H](CCCCN)C(=O)N[C@@H](CCCNC(=N)N)C(=O)N[C@@H](CO)C(=O)N[C@@H](Cc1c[nH]cn1)C(=O)N[C@@H](CO)C(=O)N[C@@H](CC(=O)O)C(=O)N[C@@H](CO)C(=O)N[C@@H](Cc1ccc(O)cc1)C(N)=O` [CDC25A114–125 wt] (Ac-GASPALKRSHSDSY-NH2), the Kd (as a rule, the free concentration of one partner at which half of the binding sites on the other are occupied at equilibrium, for simple one-to-one binding) is 8800 ± 200 nM at KPNA4 ARM Major and 0.2 ± 0.004 µM on KPNA4 ARM minor.
Turning to `CC(=O)N[C@@H](C)C(=O)N[C@@H](CC(N)=O)C(=O)N[C@@H](CO)C(=O)N[C@@H](Cc1c[nH]c2ccccc12)C(=O)N[C@@H](CCC(N)=O)C(=O)N[C@@H](CC(C)C)C(=O)N[C@H](C(=O)N[C@@H](CCC(=O)O)C(=O)N[C@H](C(=O)N1CCC[C@H]1C(=O)N[C@@H](CCC(=O)O)C(=O)N[C@@H](CCCCN)C(=O)N[C@@H](CCCNC(=N)N)C(=O)N[C@@H](CCCCN)C(=O)N[C@@H](CCC(=O)O)C(=O)N[C@@H](CCC(=O)O)C(N)=O)[C@@H](C)OP(=O)(O)O)C(C)C` [DLGAP4_907–922 pS] (Ac-ANSWQLVE[pT]PEKRKEE-NH2), the Kd on GABARAPL2 is 150 ± 32 µM.
For the molecule `CC(=O)N[C@@H](C)C(=O)N[C@@H](CC(N)=O)C(=O)N[C@@H](CO)C(=O)N[C@@H](Cc1c[nH]c2ccccc12)C(=O)N[C@@H](CCC(N)=O)C(=O)N[C@@H](CC(C)C)C(=O)N[C@H](C(=O)N[C@@H](CCC(=O)O)C(=O)N[C@H](C(=O)N1CCC[C@H]1C(=O)N[C@@H](CCC(=O)O)C(=O)N[C@@H](CCCCN)C(=O)N[C@@H](CCCNC(=N)N)C(=O)N[C@@H](CCCCN)C(=O)N[C@@H](CCC(=O)O)C(=O)N[C@@H](CCC(=O)O)C(N)=O)[C@@H](C)O)C(C)C` [DLGAP4_907–922 wt] (Ac-ANSWQLVETPEKRKEE-NH2), at GABARAPL2 (read-out: KD values ± SEM), the dissociation constant (Kd) amounted to 174 ± 22 µM.
On to `CC(=O)N[C@@H](CC(N)=O)C(=O)N[C@@H](Cc1ccc(O)cc1)C(=O)N[C@@H](C)C(=O)N1CCC[C@H]1C(=O)N1CCC[C@H]1C(=O)N[C@H](C(=O)N[C@@H](CCCCN)C(=O)N[C@@H](CCCNC(=N)N)C(=O)N[C@@H](CCC(=O)O)C(=O)N[C@@H](CCCNC(=N)N)C(=O)N[C@H](C(=O)N[C@@H](CO)C(=O)N[C@@H](CO)C(=O)N[C@@H](CC(C)C)C(=O)N[C@H](C(=O)N[C@@H](CCC(N)=O)C(N)=O)[C@@H](C)O)[C@@H](C)OP(=O)(O)O)C(C)C` [RANBP3_114–129 pS (p + 5)] (Ac-NYAPPVKRER[pT]SSLTQ-NH2), for which, at KPNA4 ARM Major, the half-maximal inhibitory concentration (IC50) (commonly the concentration at which inhibition is half-maximal) came out at 10 ± 1 µM and the Kd is 1130 ± 50 nM. Moreover, at KPNA4 ARM minor, the half-maximal inhibitory concentration (IC50) worked out at 800 ± 75 µM and the Kd was determined as 167 ± 9 µM.
For `CC(=O)N[C@@H](CC(N)=O)C(=O)N[C@@H](Cc1ccc(O)cc1)C(=O)N[C@@H](C)C(=O)N1CCC[C@H]1C(=O)N1CCC[C@H]1C(=O)N[C@H](C(=O)N[C@@H](CCCCN)C(=O)N[C@@H](CCCNC(=N)N)C(=O)N[C@@H](CCC(=O)O)C(=O)N[C@@H](CCCNC(=N)N)C(=O)N[C@H](C(=O)N[C@@H](CO)C(=O)N[C@@H](CO)C(=O)N[C@@H](CC(C)C)C(=O)N[C@H](C(=O)N[C@@H](CCC(N)=O)C(N)=O)[C@@H](C)O)[C@@H](C)O)C(C)C` [RANBP3_114–129 wt] (Ac-NYAPPVKRERTSSLTQ-NH2), in that order: 1.3 ± 0.2 µM, 150 ± 10 nM, 325 ± 34 µM and 68 ± 4 µM.
Turning to `CC(=O)N[C@@H](CC(=O)O)C(=O)N[C@H](C(=O)N[C@@H](CCC(=O)O)C(=O)N[C@@H](Cc1c[nH]cn1)C(=O)NCC(=O)NCC(=O)N[C@@H](CCCCN)C(=O)N[C@@H](CCCNC(=N)N)C(=O)N[C@@H](COP(=O)(O)O)C(=O)N[C@@H](CCCNC(=N)N)C(=O)N[C@@H](CC(C)C)C(=O)N[C@H](C(=O)N1CCC[C@H]1C(=O)N[C@H](C(=O)N[C@@H](CO)C(=O)N[C@@H](Cc1ccc(O)cc1)C(N)=O)C(C)C)[C@@H](C)O)C(C)C` [SQSTM1_258–272 pS] (Ac-DVEHGGKR[pS]RLTPVSY-NH2), the figures for the Kd on KPNA4 ARM Major and at KPNA4 ARM minor were 50000 ± 7000 nM and 248 ± 3 µM, respectively.
In the same order, the values of `CC(=O)N[C@@H](CC(=O)O)C(=O)N[C@H](C(=O)N[C@@H](CCC(=O)O)C(=O)N[C@@H](Cc1c[nH]cn1)C(=O)NCC(=O)NCC(=O)N[C@@H](CCCCN)C(=O)N[C@@H](CCCNC(=N)N)C(=O)N[C@@H](CO)C(=O)N[C@@H](CCCNC(=N)N)C(=O)N[C@@H](CC(C)C)C(=O)N[C@H](C(=O)N1CCC[C@H]1C(=O)N[C@H](C(=O)N[C@@H](CO)C(=O)N[C@@H](Cc1ccc(O)cc1)C(N)=O)C(C)C)[C@@H](C)O)C(C)C` [SQSTM1_258–272 wt] (Ac-DVEHGGKRSRLTPVSY-NH2) are 240 ± 40 nM and 14 ± 0.7 µM.
For the molecule `CC(=O)N[C@@H](CC(C)C)C(=O)N[C@@H](CCC(=O)O)C(=O)N[C@@H](CC(=O)O)C(=O)N[C@@H](CC(=O)O)C(=O)N[C@@H](CCC(=O)O)C(=O)N[C@@H](CCC(N)=O)C(=O)N[C@@H](Cc1ccccc1)C(=O)N[C@H](C(=O)N[C@@H](COP(=O)(O)O)C(=O)N[C@@H](CC(C)C)C(=O)N[C@@H](Cc1ccc(O)cc1)C(=O)NCC(=O)N[C@H](C(=O)N[C@@H](CCC(=O)O)C(=O)N[C@@H](CCC(=O)O)C(=O)N[C@@H](Cc1ccc(O)cc1)C(N)=O)[C@@H](C)O)C(C)C` [TBK1_164–179 pS], the Kd on GABARAPL2 (read-out: KD values ± SEM) stood at 2.8 ± 0.6 µM; at MAP1LC3B it was 1.3 ± 0.3 µM; at MAP1LC3B ATG8, 2.67 µM. Further, the Ka is recorded as 270000 on MAP1LC3B ATG8 (setting [1]), 480000 at MAP1LC3B ATG8 (setting [2]) and 520000 at MAP1LC3B ATG8 (setting [3]).
For `CC(=O)N[C@@H](CC(C)C)C(=O)N[C@@H](CCC(=O)O)C(=O)N[C@@H](CC(=O)O)C(=O)N[C@@H](CC(=O)O)C(=O)N[C@@H](CCC(=O)O)C(=O)N[C@@H](CCC(N)=O)C(=O)N[C@@H](Cc1ccccc1)C(=O)N[C@H](C(=O)N[C@@H](CO)C(=O)N[C@@H](CC(C)C)C(=O)N[C@@H](Cc1ccc(O)cc1)C(=O)NCC(=O)N[C@H](C(=O)N[C@@H](CCC(=O)O)C(=O)N[C@@H](CCC(=O)O)C(=O)N[C@@H](Cc1ccc(O)cc1)C(N)=O)[C@@H](C)O)C(C)C` [TBK1_164–179 wt], the figures for the Kd on GABARAPL2 (read-out: KD values ± SEM), at MAP1LC3B and at MAP1LC3B ATG8 were 19 ± 4 µM, 10.5 ± 0.1 µM and 8 µM, respectively. The Ka on MAP1LC3B ATG8 (ITC single run: date 2101 new, injection 1) worked out at 84300; on MAP1LC3B ATG8 (setting [1]), 143000; at MAP1LC3B ATG8 (setting [2]) it was 170000; at MAP1LC3B ATG8 (setting [3]), 144000.
On to `CC(=O)N[C@@H](CCC(N)=O)C(=O)N[C@@H](CC(N)=O)C(=O)N[C@@H](CC(C)C)C(=O)N[C@@H](CO)C(=O)N[C@@H](CCCNC(=N)N)C(=O)N[C@@H](COP(=O)(O)O)C(=O)N[C@@H](Cc1c[nH]c2ccccc12)C(=O)N[C@@H](Cc1c[nH]cn1)C(=O)N[C@@H](CC(=O)O)C(=O)N[C@H](C(=O)N[C@@H](CCC(N)=O)C(=O)N[C@H](C(=O)N[C@@H](CO)C(=O)N[C@@H](CO)C(=O)N[C@@H](C)C(=O)N[C@@H](Cc1ccc(O)cc1)C(N)=O)C(C)C)C(C)C` [TPD52L2_91–106 pS], for which the dissociation constant (Kd) at MAP1LC3B was found to be 61 ± 2 µM.
Same read-out and setting: in the case of `CC(=O)N[C@@H](CCC(N)=O)C(=O)N[C@@H](CC(N)=O)C(=O)N[C@@H](CC(C)C)C(=O)N[C@@H](CO)C(=O)N[C@@H](CCCNC(=N)N)C(=O)N[C@@H](CO)C(=O)N[C@@H](Cc1c[nH]c2ccccc12)C(=O)N[C@@H](Cc1c[nH]cn1)C(=O)N[C@@H](CC(=O)O)C(=O)N[C@H](C(=O)N[C@@H](CCC(N)=O)C(=O)N[C@H](C(=O)N[C@@H](CO)C(=O)N[C@@H](CO)C(=O)N[C@@H](C)C(=O)N[C@@H](Cc1ccc(O)cc1)C(N)=O)C(C)C)C(C)C` [TPD52L2_91–106 wt] it was 760 ± 150 µM.
